One may read the IC50 as the concentration that gives 50% inhibition. A lower IC50 goes with greater potency.

Assay in all cases: cells
Common to all, as to type: functional, cell-based

Experiment [1] concerns HCT-116. Conditions: Homo sapiens, HCT-116, 120 h.
In experiment [2] the test system is DLD-1. Conditions: Homo sapiens, DLD-1, 120 h.
For experiment [3], the system named is HeLa. Conditions: Homo sapiens, 120 h.
Experiment [4] concerns HeLa. The settings on record: Homo sapiens, 120 h. The source holds these as a separate data set.
The test system of experiment [5] is HCT-116. The settings on record: Homo sapiens, HCT-116, 120 h. The source holds these as a separate data set.
For experiment [6], the system named is DLD-1. Conditions: Homo sapiens, DLD-1, 120 h. The source holds these as a separate data set.
Experiment [7] deals with HeLa. Conditions: Homo sapiens, 120 h. The source holds these as a separate data set.
The test system of another experiment is U2OS. Conditions: Homo sapiens, 120 h.
In experiment [8] the test system is HCT-116. Conditions: Homo sapiens, HCT-116, 120 h. The source holds these as a separate data set.
Experiment [9] deals with HeLa. The settings on record: Homo sapiens, 120 h. The source holds these as a separate data set.
Experiment [10] relates to HCT-116. Conditions: Homo sapiens, HCT-116, 120 h. The source holds these as a separate data set.
In experiment [11] the test system is DLD-1. The settings on record: Homo sapiens, DLD-1, 120 h. The source holds these as a separate data set.

As to `CCc1cccc(CC)c1NC(=O)c1nn(C)c2c1CCc1cnc(Nc3ccc(C(=O)NC4CCN(C)CC4)cc3OC(F)(F)F)nc1-2`, the IC50 in the experiment on HCT-116 [1] was 0.171 µM; in the experiment on DLD-1 [2] it was 0.165 µM; with HeLa [3], 1.33 µM; in the experiment on HeLa [4], 1.72 µM; in the experiment with HCT-116 [5] it was over 2 µM; with DLD-1 [6], 0.198 µM. In addition, the half-inhibitory concentration (IC50) is 0.433 µM in the experiment with HeLa [7]; 0.153 µM in the experiment with U2OS; 1.62 µM in the experiment on HCT-116 [8]; over 2 µM with HeLa [9]; 0.154 µM with HCT-116 [10]; 1.02 µM with DLD-1 [11].

Take `COc1cc(N2CCC(O)CC2)ccc1Nc1nc(Nc2ccccc2S(=O)(=O)C(C)C)c2nc[nH]c2n1`: the half-inhibitory concentration (IC50) in the experiment with HCT-116 [1] came out at 1.62 µM; in the experiment on HeLa [3] it was 4.79 µM; in the experiment with HeLa [4] it was 6.79 µM; in the experiment with HCT-116 [5] it was 5.4 µM; in the experiment with DLD-1 [6], 2.42 µM; in the experiment with HeLa [7], 3.42 µM. Besides, the concentration for half-maximal inhibition (IC50) with HCT-116 [8] turned out to be 3.23 µM; with HeLa [9] it was 8.97 µM; with DLD-1 [11], 7.93 µM.

`Cc1cc(N2CCOCC2)ccc1Nc1nc(NC2CCCCC2)c2nc[nH]c2n1`: the IC50 in the experiment on HCT-116 [1] was 0.159 µM; in the experiment with DLD-1 [2], 0.0754 µM; in the experiment on HeLa [3], 0.468 µM; in the experiment with HeLa [4] it was over 2 µM; with HCT-116 [5], over 2 µM; in the experiment on DLD-1 [6], 0.183 µM. Moreover, the IC50 in the experiment with HeLa [7] is 0.282 µM; with U2OS it was 0.106 µM; with HCT-116 [8], 1.08 µM; in the experiment with HeLa [9] it was over 2 µM; in the experiment on HCT-116 [10], 0.063 µM; in the experiment with DLD-1 [11], over 2 µM.

As for `c1nc2c(NC3CCCCC3)nc(Nc3ccc(N4CCOCC4)cc3)nc2[nH]1` [REVERSINE], the concentration for half-maximal inhibition (IC50) with HCT-116 [1] stood at 0.138 µM; with DLD-1 [2], 0.12 µM; in the experiment with HeLa [3], 0.431 µM; in the experiment on HeLa [4], 0.125 µM; in the experiment on HCT-116 [5] it was 0.07 µM; in the experiment with DLD-1 [6] it was 0.136 µM. For the same molecule, the IC50 is 0.29 µM with HeLa [7]; 0.154 µM with U2OS; 0.53 µM in the experiment with HCT-116 [8]; 0.116 µM with HeLa [9]; 0.0789 µM in the experiment on HCT-116 [10]; over 2 µM with DLD-1 [11].

Take `COc1cc(OC2CCN(C)CC2)ccc1Nc1ncc2c(n1)n(C1CCCC1)c(=O)n2C`: the IC50 is 0.56 µM in the experiment on HCT-116 [1]; 3.85 µM in the experiment with HeLa [3]; 2.74 µM with HeLa [4]; over 5 µM in the experiment with HCT-116 [5]; 0.719 µM in the experiment on DLD-1 [6]; 1.33 µM in the experiment with HeLa [7]. Further, the half-inhibitory concentration (IC50) in the experiment on HCT-116 [8] is 3.06 µM; with HeLa [9], over 5 µM; with DLD-1 [11], over 5 µM.

The values are drawn from ChEMBL document CHEMBL5647693, “Molecular basis underlying resistance to Mps1/TTK inhibitors” (Oncogene, 2016).
